Assay results from PubChem BioAssay AID1963871 (Molecular Pharmacology Branch, DTP, NCI, 2024).

Tested on: KRAS-mutant PDC multicell tumor spheroid viability
Experiment: Anticancer human tumor 521955-158-R2-J5-PDC patient-derived pancreatic carcinoma cell line growth inhibition [KRAS2]
Settings: for IC50: curve of first compound; for viability, T/C: stronger effect = lower value
Procedure, shortened: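 KRAS-mutant tumor cells were grown as spheroids with HUVEC endothelial cells and human MSCs as stroma. Targeted agents were tested alone and with KRAS pathway inhibitors. Doses started at or near clinical Cmax, or 10 microM, descending half-log.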

[1] = second compound 0.1 µM, first compound 0.01 µM
[2] = second compound 0.1 µM, first compound 0.0316 µM
[3] = second compound 0.1 µM, first compound 0.1 µM
[4] = second compound 0.1 µM, first compound 0.316 µM
[5] = second compound 0.1 µM, first compound 1 µM
[6] = second compound 0.1 µM, first compound 3.16 µM
[7] = second compound 0.316 µM, first compound 0.01 µM
[8] = second compound 0.316 µM, first compound 0.0316 µM
[9] = second compound 0.316 µM, first compound 0.1 µM
[10] = second compound 0.316 µM, first compound 0.316 µM
[11] = second compound 0.316 µM, first compound 1 µM
[12] = second compound 0.316 µM, first compound 3.16 µM
[13] = second compound 1 µM, first compound 0.01 µM
[14] = second compound 1 µM, first compound 0.0316 µM
[15] = second compound 1 µM, first compound 0.1 µM
[16] = second compound 1 µM, first compound 0.316 µM
[17] = second compound 1 µM, first compound 1 µM
[18] = second compound 1 µM, first compound 3.16 µM
[19] = second compound 3.16 µM, first compound 0.01 µM
[20] = second compound 3.16 µM, first compound 0.0316 µM
[21] = second compound 3.16 µM, first compound 0.1 µM
[22] = second compound 3.16 µM, first compound 0.316 µM
[23] = second compound 3.16 µM, first compound 1 µM
[24] = second compound 3.16 µM, first compound 3.16 µM
[25] = second compound 10 µM, first compound 0.01 µM
[26] = second compound 10 µM, first compound 0.0316 µM
[27] = second compound 10 µM, first compound 0.1 µM
[28] = second compound 10 µM, first compound 0.316 µM
[29] = second compound 10 µM, first compound 1 µM
[30] = second compound 10 µM, first compound 3.16 µM
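Also: viability read after seven days of drug exposure.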

Compound	IC50 (second compound 0.1 µM)	IC50 (second compound 0.316 µM)	IC50 (second compound 1 µM)	IC50 (second compound 3.16 µM)	IC50 (second compound 10 µM)	viability, T/C [1]	viability, T/C [2]	viability, T/C [3]	viability, T/C [4]	viability, T/C [5]	viability, T/C [6]	viability, T/C [7]	viability, T/C [8]	viability, T/C [9]	viability, T/C [14]	viability, T/C [15]	viability, T/C [20]	viability, T/C [21]	viability, T/C [26]	viability, T/C [27]	other results
CC(=O)OC12COC1CC(O)C1(C)C(=O)C(O)C3=C(C)C(OC(=O)C(O)C(NC(=O)OC(C)(C)C)c4ccccc4)CC(O)(C(OC(=O)c4ccccc4)C21)C3(C)C (stereo not given) + COc1cc2nc(C)nc(NC(C)c3cc(N)cc(C(F)(F)F)c3)c2cc1OC1CCOC1	< 10 nM	< 10 nM	< 10 nM	< 10 nM	< 10 nM	25%	13.7%	14.5%	12.4%	18.4%	19%	17.5%	14.1%	13.6%	12.9%	14%	14.3%	12.1%	13.4%	14.3%	viability, T/C [10]: 13.2%; viability, T/C [11]: 15.3%; viability, T/C [12]: 20.2%; viability, T/C [13]: 18.6%; viability, T/C [16]: 14.1%; viability, T/C [17]: 19.4%; viability, T/C [18]: 26.4%; viability, T/C [19]: 14%; viability, T/C [22]: 12.5%; viability, T/C [23]: 17.1%; viability, T/C [24]: 19.6%; viability, T/C [25]: 18.1%; viability, T/C [28]: 14.1%; viability, T/C [29]: 14.3%; viability, T/C [30]: 18.9%
CC1(C)CCC(CN2CCN(c3ccc(C(=O)NS(=O)(=O)c4ccc(NCC5CCOCC5)c([N+](=O)[O-])c4)c(Oc4cnc5[nH]ccc5c4)c3)CC2)=C(c2ccc(Cl)cc2)C1 + C=CC(=O)N1CCN(c2nc(=O)n(-c3c(C)ccnc3C(C)C)c3nc(-c4c(O)cccc4F)c(F)cc23)C(C)C1	5910 nM	5020 nM	3690 nM	3460 nM	1940 nM	–	100%	116%	106%	109%	92.3%	–	96%	110%	114%	104%	90.9%	102%	75.9%	68.8%	viability, T/C (second compound 0.1 µM, first compound 10 µM): 14.3%; viability, T/C [10]: 106%; viability, T/C [11]: 112%; viability, T/C [12]: 76.1%; viability, T/C (second compound 0.316 µM, first compound 10 µM): 11.1%; viability, T/C [16]: 113%; viability, T/C [17]: 111%; viability, T/C [18]: 56%; viability, T/C (second compound 1 µM, first compound 10 µM): 10.2%; viability, T/C [22]: 92.4%; viability, T/C [23]: 86.9%; viability, T/C [24]: 52.3%; viability, T/C (second compound 3.16 µM, first compound 10 µM): 22.5%; viability, T/C [28]: 72.9%; viability, T/C [29]: 61.9%; viability, T/C [30]: 40.9%; viability, T/C (second compound 10 µM, first compound 10 µM): 13.3%
CC(C)n1nc(-c2ccc3oc(N)nc3c2)c2c(N)ncnc21 + CNCc1ccccc1-c1csc(C(C)Nc2nc(C)nc3cc(OC)c(OC)cc23)c1	7.42 nM	9.11 nM	6.62 nM	< 0.316 nM	< 0.316 nM	45.8%	34.1%	25.2%	–	–	–	49.4%	30.7%	23.8%	30.9%	21.6%	1.25%	0.88%	0.15%	0.2%	viability, T/C (second compound 0.1 µM, first compound 0.000316 µM): 91.2%; viability, T/C (second compound 0.1 µM, first compound 0.001 µM): 85.3%; viability, T/C (second compound 0.1 µM, first compound 0.00316 µM): 61.2%; viability, T/C (second compound 0.316 µM, first compound 0.000316 µM): 84%; viability, T/C (second compound 0.316 µM, first compound 0.001 µM): 83.2%; viability, T/C (second compound 0.316 µM, first compound 0.00316 µM): 67.1%; viability, T/C (second compound 1 µM, first compound 0.000316 µM): 92.5%; viability, T/C (second compound 1 µM, first compound 0.001 µM): 82.7%; viability, T/C (second compound 1 µM, first compound 0.00316 µM): 62.2%; viability, T/C [13]: 42.1%; viability, T/C (second compound 3.16 µM, first compound 0.000316 µM): 32.1%; viability, T/C (second compound 3.16 µM, first compound 0.001 µM): 43.5%; viability, T/C (second compound 3.16 µM, first compound 0.00316 µM): 0.4%; viability, T/C [19]: 0.49%; viability, T/C (second compound 10 µM, first compound 0.000316 µM): 0.38%; viability, T/C (second compound 10 µM, first compound 0.001 µM): 0.15%; viability, T/C (second compound 10 µM, first compound 0.00316 µM): 0.47%; viability, T/C [25]: 0.13%
